According to patent US10226045B2, “Azoline compounds” (priority 2014, dated 2019):

What was measured:
Type in all cases: in vivo
[1] = tested on: Diamond Back Moth (Plutella xylostella); assay: Diamond back moth, cabbage leaf dip test; settings: foliar, 300 ppm, 3rd instar larvae on dipped cabbage leaves, 72 hours after treatment, in comparison with untreated controls, read-out: mortality
Protocol: B.1 Diamond Back Moth (Plutella xylostella)
The active compound was dissolved at the desired concentration in a mixture of 1:1 (vol:vol) distilled water:aceteone. Surfactant (Kinetic HV) was added at a rate of 0.01% (vol/vol). The test solution was prepared at the day of use.
Leaves of cabbage were dipped in test solution and air-dried. Treated leaves were placed in petri dishes lined with moist filter paper and inoculated with ten 3rd instar larvae. Mortality was recorded 72 hours after treatment.

[2] = tested on: Green Peach Aphid (Myzus persicae); assay: Green peach aphid, systemic test on artificial diet in microtiter plates; settings: 72 h, 2500 ppm, adult aphids on treated artificial diet, 3 days, in comparison with untreated controls, read-out: mortality
Description: B.2 Green Peach Aphid (Myzus persicae)
For evaluating control of green peach aphid (Myzus persicae) through systemic means the test unit consisted of 96-well-microtiter plates containing liquid artificial diet under an artificial mem brane.
The compounds were formulated using a solution containing 75% v/v water and 25% v/v DMSO. Different concentrations of formulated compounds were pipetted into the aphid diet, using a custom built pipetter, at two replications.
After application, 5-8 adult aphids were placed on the artificial membrane inside the microtiter plate wells. The aphids were then allowed to suck on the treated aphid diet and incubated at about 23±1° C. and about 50±5% relative humidity for 3 days. Aphid mortality and fecundity was then visually assessed.

[3] = tested on: Vetch Aphid (Megoura viciae); assay: Vetch aphid, broad bean leaf disk test; settings: foliar, 120 h, 2500 ppm, adult aphids on sprayed broad bean leaf disks, 5 days, in comparison with untreated controls, read-out: mortality
Protocol: B.3 Vetch Aphid (Megoura viciae)
For evaluating control of vetch aphid (Megoura viciae) through contact or systemic means the test unit consisted of 24-well-microtiter plates containing broad bean leaf disks.
The compounds were formulated using a solution containing 75% v/v water and 25% v/v DMSO. Different concentrations of formulated compounds were sprayed onto the leaf disks at 2.5 μl, using a custom built micro atomizer, at two replications.
After application, the leaf disks were air-dried and 5-8 adult aphids placed on the leaf disks inside the microtiter plate wells. The aphids were then allowed to suck on the treated leaf disks and incubated at about 23±1° C. and about 50±5% relative humidity for 5 days. Aphid mortality and fecundity was then visually assessed.

[4] = tested on: Tobacco Budworm (Heliothis virescens); assay: Tobacco budworm, insect diet microtiter plate test; settings: 120 h, 2500 ppm, eggs on sprayed insect diet, egg and larval mortality after 5 days, in comparison with untreated controls, read-out: mortality
Protocol: B.4 Tobacco Budworm (Heliothis virescens)
For evaluating control of tobacco budworm (HeliothiS virescens) the test unit consisted of 96-well-microtiter plates containing an insect diet and 15-25 H. virescens eggs.
The compounds were formulated using a solution containing 75% v/v water and 25% v/v DMSO. Different concentrations of formulated compounds were sprayed onto the insect diet at 10 μl, using a custom built micro atomizer, at two replications.
After application, microtiter plates were incubated at about 28±1° C. and about 80±5% relative humidity for 5 days. Egg and larval mortality was then visually assessed.

[5] = tested on: Boll Weevil (Anthonomus grandis); assay: Boll weevil, insect diet microtiter plate test; settings: 120 h, 2500 ppm, eggs on sprayed insect diet, egg and larval mortality after 5 days, in comparison with untreated controls, read-out: mortality
Protocol: B.5 Boll Weevil (Anthonomus grandis)
For evaluating control of boll weevil (Anthonomus grandis) the test unit consisted of 96-well-microtiter plates containing an insect diet and 5-10 A. grandis eggs.
The compounds were formulated using a solution containing 75% v/v water and 25% v/v DMSO. Different concentrations of formulated compounds were sprayed onto the insect diet at 5 μl, using a custom built micro atomizer, at two replications.
After application, microtiter plates were incubated at about 25±1° C. and about 75±5% relative humidity for 5 days. Egg and larval mortality was then visually assessed.

[6] = tested on: Rice Green Leafhopper (Nephotettix virescens); assay: Rice green leafhopper, sprayed rice seedlings; settings: 300 ppm, adults on sprayed rice seedlings, after 72 hours, in comparison with untreated controls, read-out: mortality
Protocol: B.8 Rice Green Leafhopper (Nephotettix virescens)
Rice seedlings were cleaned and washed 24 hours before spraying. The active compounds were formulated in 1:1 acetone:water (vol:vol), and 0.01% vol/vol surfactant (Kinetic HV) was added. Potted rice seedlings were sprayed with 5-6 ml test solution, air dried, covered with Mylar cages cages and inoculated with 10 adults. Treated rice plants were kept at about 28-29° C. and relative humidity of about 50-60%. Percent mortality was recorded after 72 hours.

[7] = tested on: Red Spider Mite (Tetranychus kanzawai); assay: Red spider mite, sprayed cowpea beans; settings: 300 ppm, mites on sprayed cowpea beans, 72 hours after treatment, in comparison with untreated controls, read-out: mortality
Protocol: B.9 Red Spider Mite (Tetranychus kanzawai)
The active compound was dissolved at the desired concentration in a mixture of 1:1 (vol:vol) distilled water:acetone. Add surfactant (Kinetic HV) was added at a rate of 0.01% (vol/vol). The test solution was prepared at the day of use.
Potted cowpea beans of 4-5 days of age were cleaned with tap water and sprayed with 1-2 ml of the test solution using air driven hand atomizer. The treated plants were allowed to air dry and afterwards inoculated with 30 or more mites by clipping a cassava leaf section from rearing population. Treated plants were placed inside a holding room at about 25-27° C. and about 50-60% relative humidity. Percent mortality was assessed 72 hours after treatment.

[8] = tested on: Southern Armyworm (Spodoptera eridania); assay: Southern armyworm, sprayed lima bean plants; settings: 96 h, 1 ppm, larvae on sprayed lima bean plants, 4 days after treatment, in comparison with untreated controls, read-out: mortality
Protocol: B.10 Southern Armyworm (Spodoptera eridania)
The active compounds were formulated in cyclohexanone as a 10,000 ppm solution supplied in tubes. The tubes were inserted into an automated electrostatic sprayer equipped with an atomizing nozzle and they served as stock solutions for which lower dilutions were made in 50% acetone:50% water (v/v). A nonionic surfactant (Kinetic®) was included in the solution at a volume of 0.01% (v/v).
Lima bean plants (variety Sieva) were grown 2 plants to a pot and selected for treatment at the 1st true leaf stage. Test solutions were sprayed onto the foliage by an automated electrostatic plant sprayer equipped with an atomizing spray nozzle. The plants were dried in the sprayer fume hood and then removed from the sprayer. Each pot was placed into perforated plastic bags with a zip closure. About 10 to 11 armyworm larvae were placed into the bag and the bags zipped closed. Test plants were maintained in a growth room at about 25° C. and about 20-40% relative humidity for 4 days, avoiding direct exposure to fluorescent light (24 hour photoperiod) to prevent trapping of heat inside the bags. Mortality and reduced feeding were assessed 4 days after treatment, compared to untreated control plants.

O=C(NC1CS(=O)(=O)C1)c1ccc(C2=NCC(c3cc(Cl)c(F)c(Cl)c3)(C(F)(F)F)C2)c2c1CCC2 (centres unmarked) [Compound 2-3, 7-[3-(3,5-Dichloro-4-fluoro-phenyl)-3-(trifluoromethyl)-2,4-dihydropyrrol-5-yl]-N-(1,1-dioxothietan-3-yl)indane-4-carboxamide]
≥ 75%: mortality at 300 ppm [1] | mortality at 2500 ppm [2] | mortality at 2500 ppm [3] | mortality at 2500 ppm [4] | mortality at 2500 ppm [5] | mortality at 300 ppm [6] | mortality at 300 ppm [7] | mortality at 1 ppm [8]
